Experimental data: patent publication US10751379B2, “Method for preparing anti-obesity composition by using astringent persimmons and mandarin peels” (INDUSTRY ACADEMIC COORPERATION FOUNDATION DAEGU HAANY …, priority 2016, dated 2020)
In brackets after ≈: the same amount, converted by molar mass.

How the values were obtained:
[1] = DPPH radical inhibition (antioxidant activity); format: biochemical; settings: 60 μM DPPH, 30 minutes at 25° C., 540 nm
Protocol: The ascorbic acid (standard sample) was prepared for eight concentrations (0.5, 1, 2, 5, 10, 20, 50, and 200 μg/mL). The reaction mixture was stored in the dark at 25° C. for 30 minutes. The optical density was determined using a microplate reader (M200 PRO, Tecan, Austria). The mixture was measured spectrophotometrically using 540 nm. The antioxidant activity of each sample was expressed in terms of IC50 (micromolar concentration required to inhibit DPPH radical formation by 50%, calculated from the log-dose inhibition curve). Antioxidant activity was expressed in terms of IC50, and a lower IC50 value corresponds to a large inhibition. The radical scavenging activity was calculated using the following formula. DPPH radical scavenging activity (%)=[1(Asample/Ablank)]×100

ABTS radical inhibition = format: biochemical; settings: 15 minutes at room temperature in the dark, 750 nm
Protocol: ABTS inhibition of the different extracts was measured according to the modified method of Park et al. ABTS stock solution was dissolved in water to 7.4 mM concentration. The ABTS radical cation (ABTS) was produced by reacting ABTS stock solution with 2.45 mM potassium persulfate and allowing the mixture to stand for 14 hours at room temperature in the dark. The ABTS solution was diluted with ethanol to obtain an absorbance of 0.70±0.02 at 750 nm. After adding diluted ABTS solution to PCM solution, the mixture was left standing at room temperature for 15 minutes in the dark. The ascorbic acid (standard sample) was prepared for eight concentrations (0.5, 1, 2, 5, 10, 20, 50, and 200 μg/mL). The absorbance at 750 nm was measured using a microplate reader (M200 PRO, Tecan, Austria). The blank was prepared in the same manner, except that distilled water was used instead of the sample. The radical scavenging activity was calculated using the following formula. ABTS radical scavenging activity (%)=[1(Asample/Ablank)]×100

[2] = system: HFD-induced obesity in mice; assay: Serum lipid profiles in HFD-induced obesity mice, 6 weeks; format: in vivo, ICR mice; settings: Orlistat orally daily for 6 weeks
Protocol: Male healthy 4-week-old ICR mice (about 30-32 g) were purchased from Orient (Gyeonggi-do, Korea). Each mouse was kept at room temperature (22±3° C.) and humidity (55±5%) with a 12-h light/dark cycle. The experiments were approved by the Ethics Committee of Animal Experimentation of the University of Daegu Haany. The mice were allowed free access to laboratory pellet chow and water ad libitum. After adaptation (1 week), all experimental mice except normal mice (n=8) were fed with 60% high-fat diet (HFD; Diet 12492, Research Diets, Inc., 105 New Brunswick, N.J., USA) for 5 days to adapt to a feed. Thereafter, ICR mice (n=32) fed 60% HFD were randomly divided into four groups (HFD control group, orlistat group, and two PCM treatment groups (50 and 200 mg/kg/day))(in each group n=8). The normal group is supplied with a normal feed and the rest of the groups are supplied with 60% HFD until the end of experiment. The normal and HFD control groups were given water using a stomach tube, while the drug treatment groups were orally given Orlistat or PCM daily using a stomach tube for 6 weeks. After administration for 6 weeks, each mouse was sacrificed after fasting for 12 hours. The blood was immediately centrifuged for 10 minutes at 4° C. Serum triglyceride and total cholesterol were conducted spectrophotometrically using commercially available kits (Wako Pure Chemical Industries, Ltd., Osaka, Japan). HDL-cholesterol is measured using a commercial kit from Asan Pharm Co., Ltd. (Hwaseong-si, Korea, Cat AM203). LDL-cholesterol levels are calculated though TG, TC and HDL levels, and the following formula.

[3] = system: HFD-induced obesity in mice; assay: Body weight and visceral fat in HFD-induced obesity mice, 6 weeks; format: in vivo, ICR mice
Protocol: Male healthy 4-week-old ICR mice (about 30-32 g) were purchased from Orient (Gyeonggi-do, Korea). Each mouse was kept at room temperature (22±3° C.) and humidity (55±5%) with a 12-h light/dark cycle. […] The mice were allowed free access to laboratory pellet chow and water ad libitum. After adaptation (1 week), all experimental mice except normal mice (n=8) were fed with 60% high-fat diet (HFD; Diet 12492, Research Diets, Inc., 105 New Brunswick, N.J., USA) for 5 days to adapt to a feed. Thereafter, ICR mice (n=32) fed 60% HFD were randomly divided into four groups (HFD control group, orlistat group, and two PCM treatment groups (50 and 200 mg/kg/day))(in each group n=8). The normal group is supplied with a normal feed and the rest of the groups are supplied with 60% HFD until the end of experiment. The normal and HFD control groups were given water using a stomach tube, while the drug treatment groups were orally given Orlistat or PCM daily using a stomach tube for 6 weeks. After administration for 6 weeks, each mouse was sacrificed after fasting for 12 hours. The blood was immediately centrifuged for 10 minutes at 4° C.

pancreatic lipase enzyme = biological target: T1, pancreatic lipase enzyme (Homo sapiens, UniProt P16233); settings: background statement; cited from earlier work
T1 sequence (P16233 17-465): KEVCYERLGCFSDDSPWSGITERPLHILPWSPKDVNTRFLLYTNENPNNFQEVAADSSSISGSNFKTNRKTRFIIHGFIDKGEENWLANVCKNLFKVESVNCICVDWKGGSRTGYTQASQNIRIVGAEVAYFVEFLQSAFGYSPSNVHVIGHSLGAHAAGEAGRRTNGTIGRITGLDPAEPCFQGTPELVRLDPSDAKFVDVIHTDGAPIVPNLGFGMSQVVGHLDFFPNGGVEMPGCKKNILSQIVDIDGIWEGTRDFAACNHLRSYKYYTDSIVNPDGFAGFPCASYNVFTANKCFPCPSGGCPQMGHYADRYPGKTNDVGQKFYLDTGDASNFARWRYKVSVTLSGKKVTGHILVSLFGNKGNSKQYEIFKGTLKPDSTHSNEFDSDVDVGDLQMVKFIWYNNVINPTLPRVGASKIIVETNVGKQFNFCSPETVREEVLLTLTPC

[4] = biological target: T2, porcine pancreatic lipase (Sus scrofa, UniProt P00591); assay: Pancreatic lipase inhibition (p-NPB hydrolysis); format: biochemical; settings: PCM 100-1000 μg/mL, orlistat 0.1-1 μg/mL, n=4
T2 construct: purchased Sigma-Aldrich Co. Type 2 (catalogue number not given)
T2 sequence (P00591 1-450): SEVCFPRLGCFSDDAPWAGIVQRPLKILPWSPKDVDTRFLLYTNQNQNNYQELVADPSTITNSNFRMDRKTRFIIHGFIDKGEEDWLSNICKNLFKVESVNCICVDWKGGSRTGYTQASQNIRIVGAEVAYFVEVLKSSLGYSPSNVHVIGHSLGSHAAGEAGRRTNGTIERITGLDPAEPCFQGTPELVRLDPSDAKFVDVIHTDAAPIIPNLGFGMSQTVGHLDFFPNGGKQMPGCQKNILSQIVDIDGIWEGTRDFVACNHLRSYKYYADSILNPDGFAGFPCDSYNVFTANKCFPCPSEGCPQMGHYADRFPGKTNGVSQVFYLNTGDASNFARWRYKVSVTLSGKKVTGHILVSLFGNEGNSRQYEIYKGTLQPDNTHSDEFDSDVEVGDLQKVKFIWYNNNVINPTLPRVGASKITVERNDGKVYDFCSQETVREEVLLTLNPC

[5] = Orlistat orally daily for 6 weeks

IC50 of DPPH inhibition [1]	IC50 value against the ABTS (ABTS radical inhibition)	SMILES	LDL-cholesterol level ([2]; calculated from TG, TC, HDL)	TC level ([2]; serum)	TG level ([2]; serum)	Weight Amount of change [3, 5]	Weight Final [3, 5]	visceral fat weight compared with HFD control mice ([3]; Orlistat, 6 weeks)	prevention of absorption of dietary fat (pancreatic lipase enzyme)	side effects (pancreatic lipase enzyme)	lipase inhibition versus dose (FIG. 2) [4]
1.26 ± 0.02 µg/mL	2.27 ± 0.19 µg/mL (≈ 12.9 µM)	O=C1O[C@H]([C@@H](O)CO)C(O)=C1O [ascorbic acid]									
		CCCCCCCCCCC[C@@H](C[C@@H]1OC(=O)[C@H]1CCCCCC)OC(=O)[C@H](CC(C)C)NC=O [Orlistat]	at the same level as normal food-supplied mice	at the same level as normal food-supplied mice	at the same level as normal food-supplied mice	8.21 ± 1.82 g/6 weeks	44.92 ± 1.62 g	significantly decreased	approximately 30%	severe gastrointestinal side effects	did not rise at least a certain concentration
